The subject of the assay is Non-transgenic maize seed from inbred N46. Briefly: Priming matrix additives: Dormex + DMSO. The class given is in vivo. The following applies: 1% DMSO without Dormex, 3 hours, 95 seed. The method, then: Non-transgenic maize seed from inbred N46 were primed with 0, 5, 10, 15, or 30% Dormex® solutions with and without 1% DMSO. For each treatment, 96 seeds were soaked in 50 ml of Dormexe solution in a petri dish for 3 hours at room temperature. After priming the seeds were transferred into pollination bags, and dried overnight in front of a fan. Dried primed seed were then planted into flats to germinate.

Drawing on US20070220627A1, “Methods and Compositions for the Selection of a Transgenic Plant” (PIONEER HI-BRED INTERNATIONAL, INC., priority 2006, published 2007), this text covers Germination % and Seedlings for one molecule.

With `C[S+](C)[O-]` [DMSO], the Germination % is 93% and the Seedlings stood at 88.
